“And” between values parts separate entries of the source, which are not always exact repeats. Identical values can stand only once. Like-named read-outs stand apart in the source and are kept apart here. Each block holds one molecule with its values, some of them ahead of it.
Legend:
[1] = Cytotoxicity assay against L6 cells; type: cell-based; conditions: rat skeletal myoblast L6, mean ± margin of deviation of two independent determinations
Method: Cytotoxicity was assessed using rat skeletal myoblasts (L6 cells) and a similar protocol as used for the Tbr assay. […] All following steps were according to the T. b. rhodesiense protocol (see Section 3.3. above).

[2] = system: P. falciparum NF54 strain; assay: Antiplasmodial activity, [3H]-hypoxanthine incorporation assay; type: cell-based, Plasmodium falciparum
Method: Antiplasmodial activity was determined using the NF54 strain of P. falciparum (drug sensitive). A modification of the [^3H]-hypoxanthine incorporation assay was used. […] After 48 h of incubation at 37 °C in a reduced oxygen atmosphere, 0.5 μCi ^3H-hypoxanthine was added to each well. Cultures were incubated for a further 24 h before they were harvested onto glass-fiber filters and washed with distilled water. The radioactivity was counted using a Betaplate™ liquid scintillation counter (Wallac, Zurich, Switzerland). […] From the sigmoidal inhibition curves IC50 values were calculated. Assays were run in duplicate and repeated once.

[3] = system: T. b. rhodesiense STIB 900 bloodstream forms; assay: Anti-trypanosomal activity on T. brucei rhodesiense (Alamar blue); type: cell-based, Trypanosoma brucei rhodesiense
Method: Minimum Essential Medium with Earle’s salts (50.0 µL) supplemented with 0.2 mM 2-mercaptoethanol, 1.0 mM Na pyruvate and 15% heat-inactivated horse serum was added to each well of a 96-well microtiter plate. Serial drug dilutions of eleven 3-fold steps covering a range from 100 to 0.002 µM were prepared. Then 10^4 bloodstream forms of T. b. rhodesiense STIB 900 in 50.0 µL of medium were added to each well and the plate incubated at 37 °C under a 5% CO2 atmosphere for 72 h. Alamar blue solution (10.0 µL of a solution of 12.5 mg resazurin dissolved in 100 mL distilled water) were then added to each well and incubation continued for a further 2–4 h. The plate was then read in a Spectramax Gemini XS microplate fluorometer (Molecular Devices Corporation, Sunnyvale, CA, USA) using an excitation wavelength of 536 nm and emission wavelength of 588 nm. Fluorescence development was measured and expressed as percentage of the control. Data were transferred into the graphic programme Softmax Pro (Molecular Devices), which calculated IC50 values.

T. brucei = conditions: cited from earlier work
malarial parasite = system: malarial parasite; set-up: method as in PMID 21157686; conditions: cited from earlier work
[4] = system: L. donovani amastigotes (strain MHOM/ET/67/L82); assay: Antileishmanial activity on L. donovani (axenic amastigote assay); type: cell-based, Leishmania donovani; conditions: for IC50: 72 h, axenic amastigotes, mean ± margin of deviation of two independent determinations
Method: Fifty µL of SM medium at pH 5.4 supplemented with 10% heat-inactivated FBS, was added to each well of a 96-well microtiter plate. Serial drug dilutions were prepared covering a range from 100.0 to 0.002 µM. Then 10^5 axenically grown L. donovani amastigotes (strain MHOM/ET/67/L82) in 50.0 µL medium were added to each well and the plate incubated at 37 °C under a 5% CO2 atmosphere for 72 h. Resazurin solution (10.0 µL, 12.5 mg resazurin dissolved in 100 mL distilled water) were then added to each well and incubation continued for a further 2–4 h. The plate was then read in a Spectramax Gemini XS microplate fluorometer (Molecular Devices, Sunnyvale, CA, USA) using an excitation wavelength of 536 nm and emission wavelength of 588 nm. Fluorescence development was measured and expressed as percentage of the control. Data were transferred into the graphic programme Softmax Pro (Molecular Devices) which calculated IC50 values from the sigmoidal inhibition curves.

[5] = Plasmodium falciparum, NF54, read-out: IC50 Values P. falciparum
[6] = L6 cells (rat skeletal myoblasts)
[7] = 72 h; mean ± margin of deviation of two independent determinations; read-out: IC50 Values T. b. rhodesiense
[8] = Trypanosoma brucei, 72 h; mean ± margin of deviation of two independent determinations; read-out: IC50 Values T. b. rhodesiense
[9] = Plasmodium falciparum, NF54, NF54 strain, mean ± margin of deviation of two independent determinations, read-out: IC50 Values P. falciparum

IC50 [2, 5]: 0.004 µM
Compound: CCN(CC)CCCC(C)Nc1ccnc2cc(Cl)ccc12 (centres unmarked) [Chloroquine, reference compound]
IC50 [1]: 120 ± 27.5 µM

Compound: C=C(C)C1CC=C(C(=O)OC)CC(=O)CC(C)(O)C(O)C2=CC(C(=O)OC)=C(C1)O2 (centres unmarked) [Compound 17, Sinumaximol A]
IC50 [1]: 45 ± 2.9 µM | IC50 ([3]; Trypanosoma brucei; 72 h; mean ± margin of deviation of two independent determinations; read-out: IC50 Values T. b. rhodesiense): > 20 µM | IC50 [2, 5]: 7.2 ± 0.71 µM

Compound: C=C1CO[C@H]2/C=C(\C)CC[C@@H]3O[C@]3(C)CC/C=C(\C)CC[C@@]12O [Compound 11, laevigatol B]
In vitro activity against T. brucei (in words) (T. brucei): active

IC50 [2, 9]: 7.43 ± 0.86 µM
Compound: C=C1CCC2(O)C(=C)COC2C=C(C)CCC(O)C2(C)CCC1O2 (centres unmarked) [Compound 13, crassumol E]
IC50 [1, 6]: 43 ± 2.6 µM | Activity against bloodstream forms of T. brucei (in words) [3]: showed activity | IC50 [3, 7]: 0.72 ± 0.04 µM | Selectivity index, times more active against Tbr than against L6 cells ([3]; L6 vs Tbr): 60 | IC50 [3, 8]: ≤ 1 µM

Compound: C/C1=C\CC/C(C)=C/C[C@](O)(C(C)C)CC/C(C)=C/CC1 [serratol, reference compound]
In vitro activity against T. brucei (in words) (T. brucei): also showed such activity | Activity against the malarial parasite (in words) (malarial parasite): some activity

IC50 ([4]; Leishmania donovani): 0.14 ± 0.05 µM
Compound: CCCCCCCCCCCCCCCCOP(=O)([O-])OCC[N+](C)(C)C [Miltefosine, reference compound]
IC50 [1, 6]: 143 ± 35.3 µM

Compound: CC1=C2CCC3(C)OC2(OC1)C1C3CCC(C)(O)C2CCC1(C)O2 (centres unmarked) [Compound 12, crassumol D]
IC50 [1, 6]: 58.7 ± 1 µM | Activity against bloodstream forms of T. brucei (in words) [3]: showed activity | IC50 [3, 7]: 0.61 ± 0.01 µM | Selectivity index, times more active against Tbr than against L6 cells ([3]; L6 vs Tbr): 96 | IC50 [3, 8]: ≤ 1 µM

Compound: C/C1=C\[C@@H]2O[C@@H](O)[C@@]3(C)O[C@@]23CC/C(C)=C/CC[C@](C)(O)[C@H](O)CC1 [Compound 7, lobocrasol B]
Antileishmanial activity (in words) [4]: devoid of antileishmanial activity

Compound: Nc1nc(N)nc(Nc2ccc([As]3SCC(CO)S3)cc2)n1 (centres unmarked) [Melarsoprol, reference compound]
IC50 [1]: 28.9 ± 9.3 µM | IC50 ([3]; Trypanosoma brucei, 72 h, read-out: IC50 Values T. b. rhodesiense): 0.005 µM

Compound: C=C(C)C1CC(=O)CC2OC(C)(CC2=O)CC2C=C(C(=O)O2)C(OC)C1 (stereo not drawn) [Compound 21, 13-Epi-scabrolide C]
IC50 [1, 6]: 47.5 ± 6 µM | Activity against bloodstream forms of T. brucei (in words) [3]: showed activity | IC50 [3, 8]: 11.8 ± 4.46 µM

IC50 [2, 9]: 22.95 ± 0.15 µM
Compound: COC(=O)C(C)C1=CC=C(C)CCC2OC2(C)CCC=C(C)CC1 (stereo not drawn) [Compound 1, 7S,8S-epoxy-1,3,11-cembratriene-16-oic methyl ester]
IC50 [1, 6]: > 54 µM | Activity against bloodstream forms of T. brucei (in words) [3]: showed activity | IC50 [3, 7]: 1 ± 0.19 µM | IC50 [3, 8]: ≤ 1 µM

Compound: C=C(C)C1CCC23OC2C(CC(C)(O)C=C2C=C(C(=O)OC)C(OC)(C1)O2)OC3=O (centres unmarked) [Compound 18, Sinumaximol C]
IC50 [1, 6]: 28.7 ± 9.95 µM | Activity against bloodstream forms of T. brucei (in words) [3]: showed activity | IC50 [3, 8]: 9.88 ± 1.93 µM

IC50 ([4]; Leishmania donovani): < 0.2 µM | IC50 [4]: 0.18 ± 0.02 µM
Compound: C/C1=C\[C@@H]2O[C@@H](O)[C@@]3(C)O[C@@]23CC/C(C)=C/CC[C@](C)(O)[C@@H](O)CC1 [Compound 6, Lobocrasol A]
IC50 [1, 6]: 56 ± 3.65 µM | Activity against bloodstream forms of T. brucei (in words) [3]: showed activity | IC50 [3, 8]: 9.97 ± 0.64 µM | Antileishmanial activity (in words) [4]: strongly and selectively active

IC50 ([4]; Leishmania donovani): < 0.2 µM | IC50 [4]: 0.17 ± 0.05 µM | IC50 [2, 9]: 7.37 ± 0.35 µM
Compound: C=C1CO[C@H]2/C=C(\C)CC[C@@H](O)[C@@](C)(O)C/C=C/[C@](C)(O)CC[C@@]12O [Compound 8, lobocrasol C]
IC50 [1, 6]: 40.5 ± 7.75 µM | Activity against bloodstream forms of T. brucei (in words) [3]: showed activity | IC50 [3, 8]: 9.37 ± 0.74 µM | Antileishmanial activity (in words) [4]: strongly and selectively active

IC50 ([2]; NF54 strain, mean ± margin of deviation of two independent determinations, read-out: IC50 Values P. falciparum): < 5 µM and 3.02 µM | IC50 [2, 9]: 3 µM
Compound: C/C1=C\[C@@H]2O[C@@H](O)[C@@]3(C)O[C@@]23CC/C(C)=C/CC[C@@]2(C)O[C@H]2CC1 [Compound 10, laevigatol A]
IC50 [1, 6]: 28.8 ± 10.3 µM | IC50 [3, 8]: > 20 µM | Selectivity index SI = IC50(L6)/IC50(parasite), P. falciparum ([2]; L6 vs Pf): 9.52

IC50 [2, 9]: 14.8 ± 0.9 µM
Compound: CC1=CCCC(C)(O)C=CC(C(C)C)CCC(C)=CCC1 [Compound 2, (1R,4R,2E,7E,11E)-cembra-2,7,11-trien-4-ol]
IC50 [1, 6]: 49.4 ± 5.2 µM | Activity against bloodstream forms of T. brucei (in words) [3]: showed activity | IC50 [3, 7]: 1.14 ± 0.5 µM | Selectivity index, times more active against Tbr than against L6 cells ([3]; L6 vs Tbr): 43 | IC50 [3, 8]: ≤ 1 µM

Compound: C=C1CCC(C(C)C)C=CC(C)(O)CC=CC(C)(O)CCC1O [Compound 16, (1S,2E,4S,6E,8S,11S)-2,6,12(20)-cembrantriene-4,8,11-triol]
IC50 [1, 6]: 48.6 ± 3.45 µM | Activity against bloodstream forms of T. brucei (in words) [3]: showed activity | IC50 [3, 7]: 0.65 ± 0.01 µM | Selectivity index, times more active against Tbr than against L6 cells ([3]; L6 vs Tbr): 75 | IC50 [3, 8]: ≤ 1 µM

IC50 [2, 9]: 7.57 ± 0.59 µM
Compound: C=C1CCC2=C(C)C(=O)OC2C=C(C)CCC(O)C2(C)CCC1O2 (centres unmarked) [Compound 15, Crassumol G]
IC50 [1, 6]: 33.2 ± 13.5 µM | Activity against bloodstream forms of T. brucei (in words) [3]: showed activity | IC50 [3, 8]: 12.2 ± 0.1 µM

— article PMC6332397, “Anti-Protozoal Activities of Cembrane-Type Diterpenes from Vietnamese Soft Corals” (Molecules, 2015)
